According to ChEMBL document CHEMBL1177813, “Design and synthesis of trivalent ligands targeting opioid, cholecystokinin, and melanocortin receptors for the treatment of pain” (Bioorg Med Chem Lett, 2010):
Active and inactive are the calls of the source. No cut-off for these calls is given here. Where a SMILES comes first, the peptide text is derived from it. [ ]: non-standard residue; d: D form. Nle = CCCC[C@H](N)C(=O)O

Legend:
Cavia porcellus = species: Cavia porcellus; assay: […] activity at CCK receptor in Hartley guinea pig ileum longitudinal muscle with myenteric plexus assessed as inhibition of CCK8-stimulated muscle contraction at 1 uM; type: functional, tissue-based
[1] = Agonist activity at CCK receptor in Hartley guinea pig ileum longitudinal muscle with myenteric plexus assessed as inhibition of electrically-stimulated muscle contraction at 1 uM relative to KCl; type: functional, Cavia porcellus; parameters: scale not given: the % may be the effect or the level left
[2] = target: T1, Cholecystokinin receptor type A (Homo sapiens, UniProt P32238); assay: Displacement of [125I]CCK-8(SO3) from human CCK1 receptor expressed in human HEK293 cells; type: cell-based
T1 sequence (P32238 whole entry): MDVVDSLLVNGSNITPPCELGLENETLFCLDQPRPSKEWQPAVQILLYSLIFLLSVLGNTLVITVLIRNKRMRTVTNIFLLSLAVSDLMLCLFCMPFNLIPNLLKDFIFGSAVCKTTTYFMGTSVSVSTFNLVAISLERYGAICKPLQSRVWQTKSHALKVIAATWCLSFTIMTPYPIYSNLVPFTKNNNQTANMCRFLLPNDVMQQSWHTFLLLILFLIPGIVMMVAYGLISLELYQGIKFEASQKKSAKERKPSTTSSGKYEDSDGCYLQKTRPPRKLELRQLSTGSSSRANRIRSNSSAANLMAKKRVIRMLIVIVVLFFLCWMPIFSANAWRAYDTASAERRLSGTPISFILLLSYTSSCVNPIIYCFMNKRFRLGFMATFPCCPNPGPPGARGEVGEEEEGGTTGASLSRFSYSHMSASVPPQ

Mu-type opioid receptor [3] = target: Mu-type opioid receptor (Cavia porcellus, UniProt P97266); assay: Agonist activity at mu opioid receptor in guinea pig ileum assessed as inhibition of electrically-stimulated muscle contraction; type: functional, tissue-based
[4] = target: Delta-type opioid receptor (Mus musculus, UniProt P32300); assay: Agonist activity at delta opioid receptor in mouse vas deferens assessed as inhibition of electrically-stimulated muscle contraction; type: functional, tissue-based
Mu-type opioid receptor [5] = target: Mu-type opioid receptor (Rattus norvegicus, UniProt P33535); assay: Displacement of [3H]DAMGO from rat mu opioid receptor expressed in mouse HN9.10 cells; type: cell-based
Melanocortin receptor 4 = Melanocortin receptor 4 (Homo sapiens, UniProt P32245); assay: Displacement of Eu-NDP-alphaMSH from human MC4 receptor expressed in human HEK293 cells; type: cell-based
[6] = target: T2, Gastrin/cholecystokinin type B receptor (Homo sapiens, UniProt P32239); assay: Displacement of [125I]CCK-8(SO3) from human CCK2 receptor expressed in human HEK293 cells; type: cell-based
T2 sequence (P32239 whole entry): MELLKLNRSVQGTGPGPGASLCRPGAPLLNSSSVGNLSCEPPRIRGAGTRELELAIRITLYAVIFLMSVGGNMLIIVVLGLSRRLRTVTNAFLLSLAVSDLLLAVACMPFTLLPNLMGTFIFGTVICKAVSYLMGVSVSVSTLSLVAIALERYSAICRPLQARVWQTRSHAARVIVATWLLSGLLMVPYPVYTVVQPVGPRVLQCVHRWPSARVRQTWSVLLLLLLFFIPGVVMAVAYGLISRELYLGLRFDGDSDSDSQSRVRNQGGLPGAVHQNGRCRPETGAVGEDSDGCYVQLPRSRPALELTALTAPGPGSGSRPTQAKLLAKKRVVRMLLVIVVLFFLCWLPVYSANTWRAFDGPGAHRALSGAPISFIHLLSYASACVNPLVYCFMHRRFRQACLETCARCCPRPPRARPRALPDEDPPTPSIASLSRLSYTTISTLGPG

[7] = target: Delta-type opioid receptor (Homo sapiens, UniProt P41143); assay: Displacement of [3H]DPDPE from human delta opioid receptor expressed in mouse HN9.10 cells; type: cell-based
Homo sapiens = species: Homo sapiens; assay: Selectivity ratio of Ki for human CCK1 receptor to Ki for human CCk2 receptor
[8] = […] activity at CCK receptor in Hartley guinea pig ileum longitudinal muscle with myenteric plexus assessed as inhibition of CCK8-stimulated muscle contraction; type: functional, Cavia porcellus

Sequence of Mu-type opioid receptor (Rattus norvegicus, UniProt P33535) (P33535 whole entry): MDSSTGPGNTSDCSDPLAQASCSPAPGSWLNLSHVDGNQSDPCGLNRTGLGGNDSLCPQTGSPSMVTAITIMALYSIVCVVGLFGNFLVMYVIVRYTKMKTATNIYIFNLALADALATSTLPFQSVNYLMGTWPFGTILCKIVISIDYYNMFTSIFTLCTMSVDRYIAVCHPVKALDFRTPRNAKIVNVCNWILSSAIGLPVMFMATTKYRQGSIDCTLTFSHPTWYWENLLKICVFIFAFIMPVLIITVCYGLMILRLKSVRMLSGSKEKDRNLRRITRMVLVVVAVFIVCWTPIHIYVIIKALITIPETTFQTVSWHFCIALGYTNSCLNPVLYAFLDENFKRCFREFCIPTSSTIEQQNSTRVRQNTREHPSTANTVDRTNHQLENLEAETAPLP
Sequence of Delta-type opioid receptor (Mus musculus, UniProt P32300) (P32300 whole entry): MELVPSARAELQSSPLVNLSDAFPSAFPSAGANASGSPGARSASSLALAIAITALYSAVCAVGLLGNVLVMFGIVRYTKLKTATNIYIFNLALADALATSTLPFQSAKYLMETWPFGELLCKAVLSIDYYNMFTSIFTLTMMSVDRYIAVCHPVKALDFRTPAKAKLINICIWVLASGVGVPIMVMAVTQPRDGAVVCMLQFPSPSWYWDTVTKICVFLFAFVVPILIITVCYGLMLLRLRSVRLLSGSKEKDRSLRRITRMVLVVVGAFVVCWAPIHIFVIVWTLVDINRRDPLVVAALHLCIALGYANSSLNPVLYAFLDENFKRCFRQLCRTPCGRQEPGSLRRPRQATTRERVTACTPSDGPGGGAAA
Sequence of Delta-type opioid receptor (Homo sapiens, UniProt P41143) (P41143 whole entry): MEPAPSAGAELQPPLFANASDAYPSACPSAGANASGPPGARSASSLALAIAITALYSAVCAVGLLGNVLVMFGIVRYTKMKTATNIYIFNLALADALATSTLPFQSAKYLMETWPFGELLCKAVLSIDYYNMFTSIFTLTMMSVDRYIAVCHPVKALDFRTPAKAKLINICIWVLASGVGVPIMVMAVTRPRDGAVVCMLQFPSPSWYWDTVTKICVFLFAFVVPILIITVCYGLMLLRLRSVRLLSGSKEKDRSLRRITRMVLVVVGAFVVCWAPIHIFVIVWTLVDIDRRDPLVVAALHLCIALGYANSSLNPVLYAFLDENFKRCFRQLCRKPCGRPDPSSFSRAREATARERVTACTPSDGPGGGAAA
Sequence of Mu-type opioid receptor (Cavia porcellus, UniProt P97266) (P97266 whole entry): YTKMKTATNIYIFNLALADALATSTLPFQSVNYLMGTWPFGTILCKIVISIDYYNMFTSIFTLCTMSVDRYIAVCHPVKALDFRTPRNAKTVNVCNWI
Sequence of Melanocortin receptor 4 (P32245 whole entry): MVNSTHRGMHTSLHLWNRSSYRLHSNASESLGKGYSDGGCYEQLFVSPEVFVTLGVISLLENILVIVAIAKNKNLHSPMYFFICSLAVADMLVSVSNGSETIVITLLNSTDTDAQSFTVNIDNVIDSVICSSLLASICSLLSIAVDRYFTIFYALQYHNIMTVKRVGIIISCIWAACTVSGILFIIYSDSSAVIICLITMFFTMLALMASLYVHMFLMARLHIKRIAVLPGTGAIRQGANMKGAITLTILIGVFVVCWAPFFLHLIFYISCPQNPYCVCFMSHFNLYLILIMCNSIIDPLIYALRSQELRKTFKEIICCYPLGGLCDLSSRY

| SMILES | Ke (Cavia porcellus) | Activity [1] [%] | Ki ([2]; hek293) | IC50 (Mu-type opioid receptor [3]) [nM] | IC50 [4] [nM] | IC50 (Mu-type opioid receptor [5]) [nM] | Ki (Mu-type opioid receptor [5]) [nM] | IC50 (Melanocortin receptor 4) [nM] | other results |
| --- | --- | --- | --- | --- | --- | --- | --- | --- | --- |
| CCCC[C@H](NC(=O)[C@H](Cc1c[nH]c2ccccc12)NC(=O)[C@H](CCCNC(=N)N)NC(=O)[C@@H](Cc1ccc2ccccc2c1)NC(=O)[C@H](Cc1cnc[nH]1)NC(=O)[C@H]1Cc2ccccc2CN1C(=O)[C@@H](N)Cc1c(C)cc(O)cc1C)C(=O)N[C@@H](CC(=O)O)C(=O)N[C@@H](Cc1ccccc1)C(N)=O | inactive | 0 | – | – | – | – | – | – | – |
| CCCC[C@H](NC(=O)[C@@H](N)Cc1ccc(O)cc1)C(=O)N[C@@H](CC(=O)O)C(=O)N[C@@H](Cc1ccccc1)C(N)=O (H-Y[Nle]DF-NH2) | – | – | Not Active | – | – | – | – | – | – |
| CCCC[C@H](NC(=O)[C@H](Cc1c[nH]c2ccccc12)NC(=O)[C@H](CCCNC(=N)N)NC(=O)[C@@H](Cc1ccc2ccccc2c1)NC(=O)[C@H](Cc1cnc[nH]1)NC(=O)[C@H](Cc1ccccc1)NC(=O)[C@@H](C)NC(=O)[C@@H](N)Cc1ccc(O)cc1)C(=O)N[C@@H](CC(=O)O)C(=O)N[C@@H](Cc1ccccc1)C(N)=O | inactive | 0 | – | 2300 | 370 | 501 | 250 | 700 | IC50 [6]: 200 nM; Ki ([6]; read-out: Ki): 190 nM; IC50 [2]: 1.58 nM; Ki ([2]; read-out: Ki): 1.6 nM; IC50 [7]: 79.4 nM; Ki [7]: 42 nM; Ratio Ki (Homo sapiens): 119 |
| CCCC[C@H](NC(=O)[C@H](Cc1c[nH]c2ccccc12)NC(=O)[C@H](CCCNC(=N)N)NC(=O)[C@@H](Cc1ccc2ccccc2c1)NC(=O)[C@H](Cc1cnc[nH]1)NC(=O)[C@H](Cc1ccccc1)NC(=O)CNC(=O)[C@@H](C)NC(=O)[C@@H](N)Cc1c(C)cc(O)cc1C)C(=O)N[C@@H](CC(=O)O)C(=O)N[C@@H](Cc1ccccc1)C(N)=O | – | 0 | – | 8.3 | 11 | 0.251 | 0.13 | 160 | Ke [8]: 940 nM; IC50 [6]: 126 nM; Ki ([6]; read-out: Ki): 110 nM; IC50 [2]: 20 nM; Ki ([2]; read-out: Ki): 18 nM |
| Cc1cc(O)cc(C)c1C[C@H](N)C(=O)N1CC(=O)N[C@@H](Cc2cnc[nH]2)C(=O)N[C@H](Cc2ccc3ccccc3c2)C(=O)N[C@@H](CCCNC(=N)N)C(=O)N[C@@H](Cc2c[nH]c3ccccc23)C(=O)N[C@H](C(=O)N[C@@H](CC(=O)O)C(=O)N[C@@H](Cc2ccccc2)C(N)=O)CSSC[C@@H](N)C1=O | inactive | 0 | Not Active | 280 | 610 | 12.6 | 5.9 | 440 | Ki ([6]; hek293): Not Active; IC50 [7]: 12.6 nM; Ki [7]: 5.6 nM |
| CCCC[C@H](NC(=O)[C@H](Cc1c[nH]c2ccccc12)NC(=O)[C@H](CCCNC(=N)N)NC(=O)[C@@H](Cc1ccc2ccccc2c1)NC(=O)[C@H](Cc1cnc[nH]1)NC(=O)[C@H](Cc1ccccc1)NC(=O)[C@@H](C)NC(=O)[C@@H](N)Cc1c(C)cc(O)cc1C)C(=O)N[C@@H](CC(=O)O)C(=O)N[C@@H](Cc1ccccc1)C(N)=O | inactive | 0 | – | – | – | – | – | – | – |
| CCCC[C@H](NC(=O)[C@H](Cc1c[nH]c2ccccc12)NC(=O)[C@H](CCCN=C(N)N)NC(=O)[C@@H](Cc1ccc2ccccc2c1)NC(=O)[C@H](Cc1cnc[nH]1)NC(=O)[C@@H](N)Cc1ccccc1)C(N)=O | – | – | – | – | – | – | – | 200 | – |
| C[C@@H](NC(=O)[C@@H](N)Cc1ccc(O)cc1)C(=O)NCC(=O)N[C@@H](Cc1ccccc1)C(=O)NCCCC[C@H](NC(=O)[C@H](Cc1c[nH]c2ccccc12)NC(=O)[C@H](CCCNC(=N)N)NC(=O)[C@@H](Cc1ccc(Cl)cc1)NC(=O)[C@@H](N)Cc1cnc[nH]1)C(=O)N[C@@H](CC(=O)O)C(=O)N[C@@H](Cc1ccccc1)C(N)=O | inactive | 0 | Not Active | – | – | – | – | – | Ki ([6]; hek293): Not Active |
